# Assay results: patent US5550110A, “Endothelin Antagonists II” (Warner-Lambert Company, priority 1994, dated 1996)
# Peptide text beside a SMILES is read from it.
# Key:
# [1] = tested on: endothelin receptor (ETA), rabbit renal artery vascular smooth muscle cells; assay: Endothelin Receptor Binding Assay-A (ERBA-A), intact cell binding of [125I]-ET-1; settings: [125I]-ET-1 25 pM
# Procedure: The compounds of Formula I are valuable antagonists of endothelin. […] Thus, the compounds of Formula I were tested for their ability to inhibit [^125 I]-ET-1([^125 I]-Endothelin-1) binding in a receptor assay according to the following procedures: Endothelin Receptor Binding Assay-A (ERBA-A) Intact Cell Binding of [^125 I]-ET-1 The cells used were rabbit renal artery vascular smooth muscle cells grown in a 48-well dish (1 cm^2) (confluent cells). The assay buffer was a medium 199 containing Hanks salts and 25 mM Hepes buffer (Gibco 380-2350AJ), supplemented with penicillin/streptomycin/fungizone (0.5%) and bovine serum albumin (1 mg/mL). Amersham radioiodinated endothelin-1 [^125 I]-ET-1 was used at final concentration of 20,000 cpm/0.25 mL (25 pM). […] Second, remove the assay buffers, place the dish on ice, and add 150 μL of cold assay buffer described above to each well. Third, add […] each of cold [^125 I]-ET-1 and competing ligand to the solution (at the same time if possible). Next, place dish in a 37° C. water bath for about 2 hours and gently agitate the dish every 15 minutes. Discard the radioactive incubation mixture in the sink and wash wells 3 times with 1 mL of cold phosphate buffered saline. Last, add […] of 0.25 molar sodium hydroxide, agitate for 1 hour on a rotator, and then transfer the sodium hydroxide extract to gamma counting tubes and count the radioactivity.
# [2] = tested on: endothelin receptor, cultured rabbit renal artery vascular smooth muscle cells; assay: Inhibition of ET-1 stimulated arachidonic acid release (AAR-A); assay type: cell-based; settings: ET-1 0.3 nM
# Procedure: In Vitro Inhibition of ET-1 Stimulated Arachidonic Acid Release in Cultured Rabbit Vascular Smooth Muscle Cells (AAR-A) or CHO Cells Expressing Rat Recombinant ETB Receptor (AAR-B) by Compounds of Formula I
# Antagonist activity is measured by the ability of added compounds to reduce endothelin-stimulated arachidonic acid release in cultured vascular smooth muscle cells as arachidonic acid release (AAR). [^3 H] Arachidonic Acid Loading Media (LM) is DME/F12+0.5% fetal calf serum (FCS)×0.25 mCi/mL [^3 H] arachidonic acid (Amersham). Confluent monolayers of cultured rabbit renal artery vascular smooth muscle cells (AAR-A) or CHO cells expressing rat recombinant ETB receptor (AAR-B) were incubated in 0.5 mL of the LM over 18 hours, at 37° C., in 5% CO2. The LM was aspirated and the cells were washed once with the assay buffer (Hank's balanced salt solution [BSS]+10 mM HEPES+fatty acid-free BSA (1 mg/mL)), and incubated for 5 minutes with 1 mL of the prewarmed assay buffer. This solution was aspirated, followed by an additional 1 mL of prewarmed assay buffer, and further incubated for another 5 minutes. A final 5-minute incubation was carried out in a similar manner. The same procedure was repeated with the inclusion of 10 μL of the test compound (1 nM to 1 μM) and 10 μL ET-1 (0.3 nM) and the incubation was extended for 30 minutes. This solution was then collected, […] of scintillation cocktail was added, and the amount of [^3 H] arachidonic acid was determined in a liquid scintillation counter.
compound,measurement,setting,value
"CC[C@H](C)[C@H](NC(=O)[C@H](CC(=O)O)NC(=O)[C@H](CC(C)C)NC(=O)[C@H](NC(C)=O)C1c2ccccc2CCc2ccccc21)C(=O)N(C)[C@H](C(=O)N[C@@H](Cc1c[nH]c2ccccc12)C(=O)O)[C@@H](C)CC [Example 19, Ac-D-Bhg-Leu-Asp-Ile-N-MeIle-Trp] (HELM PEPTIDE1{[ac].[O=C([C@H](N[*:1])C1c2ccccc2CCc2ccccc21)[*:2]].L.D.I.[meI].W}$$$$V2.0)",IC50,[1],0.5 nM
same,IC50,[2],4.3 nM
